In series [1] the test system is SH-SY5Y. The series can be described thus: Neuroprotective activity against amyloid beta (1 to 42 residues) induced cell death in human SH-SY5Y cells expressing APPswe mutant at 1 uM after 48 hrs by WST1 assay. Format: functional, cell-based. For orientation: Formazan colour is commonly taken as a measure of viable cells.
For series [2], the system named is SH-SY5Y. In words: Inhibition of Zn2+-mediated amyloid beta (1 to 42 residues) production in human SH-SY5Y cells expressing APPswe mutant at 1 uM after 72 hrs by ELISA based spectrophotometric analysis. The series is classed as cell-based. In general terms: In an ELISA, binding on a coated surface is turned into a signal by an enzyme label.
Series [3] has as its system SH-SY5Y. In words: Inhibition of Fe3+-mediated amyloid beta (1 to 42 residues) production in human SH-SY5Y cells expressing APPswe mutant at 1 uM after 72 hrs by ELISA based spectrophotometric analysis. Format: cell-based.
In series [4] the test system is SH-SY5Y. The series can be described thus: Antiproliferative activity against human SH-SY5Y cells at 1 uM after 24 to 72 hrs by WST1 assay. Format: cell-based.
The subject of series [5] is SH-SY5Y. In words: Inhibition of Cu2+-mediated ROS generation in human SH-SY5Y cells expressing APPswe mutant at 1 uM after 72 hrs by DCF-DA dye-based fluorescence spectroscopic analysis. Format: cell-based.
Series [6] has as its system SH-SY5Y. The series can be described thus: Effect on morphological changes in human SH-SY5Y cells expressing APPswe mutant assessed as decrease in adherent cell number at 1 uM after 72 hrs. The series is classed as ADME, cell-based.
Series [7] can be described thus: Metal chelating activity assessed as compound-Cu2+ complex formation by UV-vis spectrophotometric analysis.
The nature of series [8]: Metal chelating activity assessed as compound-Zn2+ complex formation by UV-vis spectrophotometric analysis.
The test system of series [9] is SH-SY5Y. The series can be described thus: Inhibition of Cu2+-mediated amyloid beta (1 to 42 residues) production in human SH-SY5Y cells expressing APPswe mutant at 1 uM after 72 hrs by ELISA based spectrophotometric analysis. Format: cell-based.
The test system of series [10] is SH-SY5Y. The series can be described thus: Effect on morphological changes in human SH-SY5Y cells expressing APPswe mutant assessed as alteration of cell shape at 1 uM after 72 hrs. The series is classed as ADME, cell-based.
Series [11] can be described thus: Metal chelating activity assessed as compound-Fe3+ complex formation by UV-vis spectrophotometric analysis.
Series [12] concerns SH-SY5Y. In words: Inhibition of Zn2+-mediated ROS generation in human SH-SY5Y cells expressing APPswe mutant at 1 uM after 72 hrs by DCF-DA dye-based fluorescence spectroscopic analysis. The series is classed as cell-based.
The target of series [13] is Acetylcholinesterase (Homo sapiens) (UniProt P22303). The series can be described thus: Inhibition of acetylcholinesterase (unknown origin) at 1 uM using acetylthiocholine chloride as substrate measured for 5 to 40 mins.
For series [14], the system named is SH-SY5Y. The series can be described thus: Inhibition of Fe3+-mediated ROS generation in human SH-SY5Y cells expressing APPswe mutant at 1 uM after 72 hrs by DCF-DA dye-based fluorescence spectroscopic analysis. The series is classed as cell-based.
The test system of series [15] is SH-SY5Y. The series can be described thus: Inhibition of Cu2+-induced toxicity in human SH-SY5Y cells expressing APPswe mutant assessed as increase in cell viability at 1 uM after 72 hrs by WST1 assay. Format: cell-based.
The subject of series [16] is SH-SY5Y. In words: Inhibition of Cu2+-induced caspase-3 activity in human SH-SY5Y cells expressing APPswe mutant at 1 uM after 72 hrs by AcDEVD substrate-based spectrophotometric analysis. The series is classed as cell-based.
Series [17] deals with SH-SY5Y. The series can be described thus: Inhibition of Fe3+-induced caspase-3 activity in human SH-SY5Y cells expressing APPswe mutant at 1 uM after 72 hrs by AcDEVD substrate-based spectrophotometric analysis. Format: cell-based.
Series [18] relates to SH-SY5Y. In words: Inhibition of Fe3+-induced toxicity in human SH-SY5Y cells expressing APPswe mutant assessed as increase in cell viability at 1 uM after 72 hrs by WST1 assay. The series is classed as cell-based.
Series [19] is described as follows: Effective permeability of the compound at 10^-5 mol/L after 5 hrs by UV-based PAMPA. Format: ADME. The settings on record: read-out: Peff.
The test system of series [20] is SH-SY5Y. In words: Antiproliferative activity against human SH-SY5Y cells at 1 uM after 48 hrs by WST1 assay. Format: cell-based.
In series [21] the test system is SH-SY5Y. The series can be described thus: Inhibition of Zn2+-induced caspase-3 activity in human SH-SY5Y cells expressing APPswe mutant at 1 uM after 72 hrs by AcDEVD substrate-based spectrophotometric analysis. The series is classed as cell-based.
Series [22] has as its system SH-SY5Y. The series can be described thus: Inhibition of Zn2+-induced toxicity in human SH-SY5Y cells expressing APPswe mutant assessed as increase in cell viability at 1 uM after 72 hrs by WST1 assay. The series is classed as cell-based.
Series [23] can be described thus: Effective permeability of the compound at pH 7.4 at 200 uM after 4 hrs by PAMPA-BBB assay. The settings on record: read-out: Peff. The series is classed as ADME.

Active and inactive are the calls of the source. Unless noted, the rule behind the calls is not given here.

Acetylcholinesterase (Homo sapiens), sequence (P22303 whole entry): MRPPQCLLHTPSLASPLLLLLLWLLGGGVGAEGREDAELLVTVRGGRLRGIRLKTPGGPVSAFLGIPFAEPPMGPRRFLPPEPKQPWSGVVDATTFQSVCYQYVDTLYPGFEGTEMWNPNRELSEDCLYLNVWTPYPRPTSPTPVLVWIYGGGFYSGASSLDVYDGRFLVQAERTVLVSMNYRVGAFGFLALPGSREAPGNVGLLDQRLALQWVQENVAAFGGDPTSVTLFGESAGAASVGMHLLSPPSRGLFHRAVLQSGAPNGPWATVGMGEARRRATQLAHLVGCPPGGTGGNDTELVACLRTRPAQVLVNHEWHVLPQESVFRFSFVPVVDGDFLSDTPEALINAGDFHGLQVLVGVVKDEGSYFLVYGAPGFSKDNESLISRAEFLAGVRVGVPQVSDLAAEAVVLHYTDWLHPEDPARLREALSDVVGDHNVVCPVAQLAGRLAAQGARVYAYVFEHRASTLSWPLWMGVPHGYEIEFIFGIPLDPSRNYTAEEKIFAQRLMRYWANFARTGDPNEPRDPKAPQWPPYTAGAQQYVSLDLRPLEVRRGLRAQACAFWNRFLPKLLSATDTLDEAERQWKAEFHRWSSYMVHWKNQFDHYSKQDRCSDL

On to `CCN1/C(=C/c2c(NN=C(c3ccccn3)c3ccccn3)c(=O)c2=O)Sc2ccccc21`, for which the outcome in the series with SH-SY5Y [1] was inactive. The inhibition entry in the series on SH-SY5Y [2], in the series on SH-SY5Y [3], in the series on SH-SY5Y [5], in the series on SH-SY5Y [9], with SH-SY5Y [12] and in the series with SH-SY5Y [14] was “Active” in each case. Besides, the Activity result in the series on SH-SY5Y [4] is on record as “Non-Toxic”; in the series on SH-SY5Y [6], “Toxic”; in the series on SH-SY5Y [10], “Toxic”. The outcome in [7], in series [8] and in [11] was Active. The inhibition result in [13] was “inactive”.
For the compound `COc1ccc(Nc2c(NN=C(c3ccccn3)c3ccccn3)c(=O)c2=O)cc1`, the result (in the series on SH-SY5Y [1]; in series [8]) was inactive. Further, the inhibition result with SH-SY5Y [3], in the series on SH-SY5Y [5], with SH-SY5Y [9] and in the series with SH-SY5Y [14] was “Active” in each case. In addition, the Activity result in the series on SH-SY5Y [4] is on record as “Non-Toxic”; in the series with SH-SY5Y [6] it was “Toxic”; in the series on SH-SY5Y [10] it was “Toxic”. In addition, the outcome in [7] and in series [11] was Active. Besides, the inhibition result in series [13] was “inactive”.
Turning to `C[C@H](CCC(=O)NN=C(c1ccccn1)c1ccccn1)[C@H]1CC[C@H]2[C@@H]3[C@H](O)C[C@@H]4C[C@H](O)CC[C@]4(C)[C@H]3C[C@H](O)[C@]12C`, the result (in the series on SH-SY5Y [1]; in [7]; in series [11]) was Active. The inhibition entry with SH-SY5Y [15], in the series with SH-SY5Y [3], with SH-SY5Y [9], with SH-SY5Y [16], in the series with SH-SY5Y [17] and in the series with SH-SY5Y [18] was “Active” each time. For the same compound, the Activity entry in the series with SH-SY5Y [4] was “Non-Toxic”. The result in series [8] was inactive. Also, the inhibition entry in [13] was “inactive”.
Turning to `C[C@H](CCC(=O)N/N=C/c1ccc(C(C)(C)C)cc1O)[C@H]1CC[C@H]2[C@@H]3[C@H](O)C[C@@H]4C[C@H](O)CC[C@]4(C)[C@H]3C[C@H](O)[C@]12C`, the outcome (with SH-SY5Y [1]; in series [7]; in [11]) was Active. Besides, the inhibition result with SH-SY5Y [15], in the series on SH-SY5Y [5], in the series with SH-SY5Y [14], with SH-SY5Y [16], in the series on SH-SY5Y [17] and with SH-SY5Y [18] was “Active” in each case. The inhibition entry (in the series with SH-SY5Y [3]; in the series on SH-SY5Y [9]; in [13]) was “inactive” in each case. Besides, the Activity entry with SH-SY5Y [4] was “Non-Toxic”. In [8], the result was inactive.
In the case of `C[C@H](CCC(=O)N/N=C/c1ccc2ccccc2n1)[C@H]1CC[C@H]2[C@@H]3[C@H](O)C[C@@H]4C[C@H](O)CC[C@]4(C)[C@H]3C[C@H](O)[C@]12C`, the result (with SH-SY5Y [1]; in series [7]; in [11]) was Active. Moreover, the inhibition result with SH-SY5Y [15], with SH-SY5Y [5], in the series on SH-SY5Y [14], with SH-SY5Y [16], with SH-SY5Y [17] and in the series with SH-SY5Y [18] was “Active” each time. Further, the inhibition result (in the series on SH-SY5Y [3]; in the series on SH-SY5Y [9]; in series [13]) was “inactive” in each case. For the same compound, in the series with SH-SY5Y [4], the Activity result is “Non-Toxic”. For the same compound, the outcome in [8] was inactive.
Regarding `Cc1ncc(CO)c(/C=N/Nc2nncc3ccccc23)c1O`, the result (in the series with SH-SY5Y [1]; in series [8]) was inactive. Also, the inhibition result with SH-SY5Y [3] and with SH-SY5Y [9] was “inactive” each time. For the same compound, the outcome in series [7] and in [11] was Active. Also, the Papp at 5 h, 10 µM in series [19] was 7.8 ×10⁻⁶ cm/s. Also, in the series on SH-SY5Y [20], the Activity entry is reported as “Toxic”.
Take `C(=N\Nc1nncc2ccccc12)/c1ccc2ccccc2n1`: the outcome (in the series on SH-SY5Y [1]; in series [8]; in series [11]) was inactive. Moreover, in series [7], the outcome was Active. The inhibition entry in the series with SH-SY5Y [9] is “inactive”. Also, in the series with SH-SY5Y [20], the Activity entry is on record as “Toxic”.
In the case of `Cc1ncc(CO)c(/C=N/NC(=O)c2ccc(NC(=O)CC[C@@H](C)[C@H]3CC[C@H]4[C@@H]5[C@H](O)C[C@@H]6C[C@H](O)CC[C@]6(C)[C@H]5C[C@H](O)[C@]34C)cc2)c1O` (stereo in doubt), the result in the series on SH-SY5Y [1] was inactive. For the same compound, the inhibition entry (in the series on SH-SY5Y [2]; in the series on SH-SY5Y [3]; with SH-SY5Y [5]; with SH-SY5Y [9]; in the series with SH-SY5Y [12]; in series [13]) was “inactive” throughout. The inhibition entry in the series with SH-SY5Y [14] is “inactive”. Besides, the Activity entry in the series with SH-SY5Y [4] was “Non-Toxic”. The outcome in series [7], in series [8] and in series [11] was Active. Also, in series [19], the Papp at 5 h, 10 µM worked out at 2.2 ×10⁻⁶ cm/s.
`COc1cccc(/C=N/Nc2nncc3ccccc23)c1O`: the result in the series with SH-SY5Y [1] was inactive. The inhibition result with SH-SY5Y [2], in the series on SH-SY5Y [3] and with SH-SY5Y [9] was “inactive” in each case. Also, the result in series [7], in series [8] and in [11] was Active. For the same compound, in the series on SH-SY5Y [20], the Activity entry is on record as “Toxic”.
As to `CC(C)(C)c1ccc(O)c(/C=N/Nc2nncc3ccccc23)c1`, the outcome in the series with SH-SY5Y [1] was inactive. The inhibition result in the series with SH-SY5Y [2], in the series on SH-SY5Y [3] and in the series with SH-SY5Y [9] was “inactive” in each case. Also, the result in [7], in [8] and in [11] was Active. The Activity result in the series with SH-SY5Y [20] was “Toxic”.
In the case of `Cc1ncc(CO)c(/C=N/NC(=O)CC[C@@H](C)[C@H]2CC[C@H]3[C@@H]4[C@H](O)C[C@@H]5C[C@H](O)CC[C@]5(C)[C@H]4C[C@H](O)[C@]23C)c1O`, the outcome (in the series with SH-SY5Y [1]; in series [7]; in series [8]; in [11]) was Active. In addition, the inhibition result with SH-SY5Y [21], in the series on SH-SY5Y [15], in the series on SH-SY5Y [5], in the series with SH-SY5Y [22], with SH-SY5Y [12] and in the series on SH-SY5Y [14] was “Active” throughout. Further, the inhibition result in the series with SH-SY5Y [16], in the series with SH-SY5Y [17] and in the series on SH-SY5Y [18] was “Active” throughout. The inhibition entry (in the series on SH-SY5Y [2]; in the series on SH-SY5Y [3]; in the series on SH-SY5Y [9]; in series [13]) was “inactive” throughout. Besides, the Activity entry in the series with SH-SY5Y [4] is listed as “Non-Toxic”. The Papp at 5 h, 10 µM in series [19] amounted to 7.5 ×10⁻⁶ cm/s.
For `CC(C)NCC(O)COc1cccc2ccccc12` (configuration not stated) [PROPRANOLOL], the Papp at 4 h, 200 µM in [23] is 10.3 ×10⁻⁶ cm/s.
Turning to `c1ccc(C(=NNc2nncc3ccccc23)c2ccccn2)nc1`, the result with SH-SY5Y [1] was inactive. Further, the inhibition entry in the series on SH-SY5Y [2], with SH-SY5Y [3] and in the series with SH-SY5Y [9] was “inactive” each time. The outcome in series [7], in series [8] and in [11] was Active. Also, the Activity entry with SH-SY5Y [20] was “Toxic”.

Source of the values: ChEMBL document CHEMBL4196074, “Metallomics for Alzheimer's disease treatment: Use of new generation of chelators combining metal-cation binding and transport properties” (Eur J Med Chem, 2018).
